Consider seven sequences from patent publication US7718614B2 (Kurume University, priority 2003, dated 2010).

Values joined by “and” are separate entries in the source; they are usually repeats but may differ in a detail not shown here. Equal values may be shown once.

The subject of test [1] is peptide-specific IgG. The test is described as follows: ELISA of serum IgG specific for the administered peptides, Example 1. It is filed as in vivo, human. Also on record: key: −: absent; +: present, low titer; ++: present, high titer. The note with it: serum of the individual case; for Anti-peptide IgG during the combination therapy, 6th: after 6th vaccination; for Anti-peptide IgG during the combination therapy, 12th: after 12th vaccination; for Anti-peptide IgG during the combination therapy, 18th: after 18th vaccination; for Anti-peptide IgG during the combination therapy, Pre: before combination therapy. For orientation: ELISA stands for enzyme-linked immunosorbent assay.

Test [2] deals with peptide-specific CTL precursors in PBMCs. The test is described as follows: Peptide-specific CTL precursor assay (IFN-γ production), Example 2. It is filed as cell-based, human. The conditions noted are these: for Cellular response to peptide, Pre (mean specific IFN-γ production): pre-vaccination PBMCs of the individual patient, response to HIV peptide subtracted; for Cellular response to peptide, 6th (mean specific IFN-γ production): post(6th)-vaccination PBMCs of the individual patient, * p ≦ 0.05, ** p ≦ 0.10 increased versus pre.
Protocol: Before the first vaccination and 7 days after every 6th vaccination, 30 ml of peripheral blood was obtained, and PBMCs were isolated by means of Ficoll-Conray density gradient centrifugation. Peptide-specific CTL precursors in PBMCs were detected using a previously reported culture method [24]. Briefly, PBMCs (1×10^5 cells/well) were incubated with 10 μM of each peptide in U-bottom-type 96-well microculture plates (Nunc, Roskilde, Denmark) in 200 μl of culture medium. The culture medium contained 45% RPMI-1640 medium, 45% AIM-V™ medium (Invitrogen Corp., Carlsbad, Calif.), 10% FCS, 100 U/ml of interleukin-2 (IL-2) and 0.1 mM MEM nonessential amino acid solution (Invitrogen Corp.). Half of the medium was removed and replaced with the new medium containing a corresponding peptide (20 μM) every 3 days for up to 12 days. […] The target cells (C1R-A2402 or T2, 1×10^4/well) were pulsed with each peptide (10 μM) for 2 hr, and then effector cells (1×10^5/well) were added to each well with the final volume of 200 μl. After incubation for 18 hr, the supernatants (100 μl) were collected, and the amounts of IFN-γ were measured using an enzyme-linked immuno-sorbent assay (ELISA) (limit of sensitivity: 10 pg/ml). All experiments were performed in the four different wells with duplicate assays.
All patients were vaccinated with up to 4 peptides selected from the 16 candidates by pre-vaccination measurements.

The test system is the same in test [3]. The experiment in a line: Peptide-specific CTL precursor assay (IFN-γ production of peptide-stimulated PBMCs), Example 1.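 As to all read-outs here: PBMCs cultured with each peptide at 10 µM, restimulated at 20 µM every 3 days up to 12 days, then 18 hr with peptide-pulsed target cells, IFN-γ by ELISA.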 It is filed as cell-based, human. The conditions noted are these: PBMCs of the individual case; for Cellular response to peptide during the combination therapy, 6th: after 6th vaccination; for Cellular response to peptide during the combination therapy, 12th: after 12th vaccination; for Cellular response to peptide during the combination therapy, 18th: after 18th vaccination; for Cellular response to peptide during the combination therapy, Pre: before combination therapy, grade of each positive well of quadruplicate IFN-γ assay.
Protocol: Before the first vaccination and 7 days after every 6th vaccination, 30 ml of peripheral blood was obtained, and PBMCs were isolated by means of Ficoll-Conray density gradient centrifugation. Peptide-specific CTL precursors in PBMCs were detected using a previously reported culture method [24]. Briefly, PBMCs (1×10^5 cells/well) were incubated with 10 μM of each peptide in U-bottom-type 96-well microculture plates (Nunc, Roskilde, Denmark) in 200 μl of culture medium. The culture medium contained 45% RPMI-1640 medium, 45% AIM-V™ medium (Invitrogen Corp., Carlsbad, Calif.), 10% FCS, 100 U/ml of interleukin-2 (IL-2) and 0.1 mM MEM nonessential amino acid solution (Invitrogen Corp.). Half of the medium was removed and replaced with the new medium containing a corresponding peptide (20 μM) every 3 days for up to 12 days. […] The target cells (C1R-A2402 or T2, 1×10^4/well) were pulsed with each peptide (10 μM) for 2 hr, and then effector cells (1×10^5/well) were added to each well with the final volume of 200 μl. After incubation for 18 hr, the supernatants (100 μl) were collected, and the amounts of IFN-γ were measured using an enzyme-linked immuno-sorbent assay (ELISA) (limit of sensitivity: 10 pg/ml). All experiments were performed in the four different wells with duplicate assays. […] Peptides were chosen based upon evaluation of all 4 wells by the order shown above.
Peptide-specific CTL precursors in PBMCs were detected using a previously reported culture method [24], while an ELISA was used to detect the serum IgG levels specific for the peptides administrated, as reported previously [13-15]. […] Namely, PBMCs were harvested every 2 weeks and were cultured (10^4 cells/well) for 2 days in triplicate assays with 10 μl M of phytohemagglutinin (PHA), 10 ng/ml of Epstein-Bar virus (EBV)-derived peptide with HLA-A24 or -A2 binding motif, and 10 ng/ml of two different peptides under vaccination. After 2 days in culture, the amounts of IFN-γ in cell free supernatants were measured in triplicate assays, and viable cell numbers were also counted. To avoid biases in each assay, all the PBMCs were once cryopreserved and the four different PBMCs (two from healthy donors, one from patients PBMCs harvested 2 weeks before the latest vaccination, and one from the latest vaccination) were thawed at the same time in the morning of the experiment. The PBMCs from healthy donors were from the same donors throughout the series of immunological monitoring. Responses (IFN-γ production) to PHA, EBV-peptide, and the vaccinated peptides were considered to be mediated by resting T cells, memory T cells, and activated T cells, respectively.

Test [4] deals with peptide-specific IgG. The test is described as follows: ELISA of serum anti-peptide IgG, Example 2. It is filed as in vivo, human. Also on record: key: −: absent; +: present, low titer; ++: present, high titer. The note with it: serum of the individual patient; for Anti-peptide IgG, Pre: pre-vaccination; for Anti-peptide IgG, 6th: after 6th vaccination. How it is done: Peptide-specific CTL precursors in PBMCs were detected using a previously reported culture method, while an ELISA was used to detect the serum IgG levels specific for the peptides administrated, as reported previously. In addition, a new monitoring method was conducted to carefully measure the estramustine-induced immunosuppression. Namely, PBMCs were harvested every 2 weeks and were cultured (10^4 cells/well) for 2 days in triplicate assays with […] of phytohemagglutinin (PHA), 10 ng/ml of Epstein-Bar virus (EBV)-derived peptide with HLA-A24 or -A2 binding motif, and 10 ng/ml of two different peptides under vaccination. After 2 days in culture, the amounts of IFN-γ in cell free supernatants were measured in triplicate assays, and viable cell numbers were also counted. To avoid biases in each assay, all the PBMCs were once cryopreserved and the four different PBMCs (two from healthy donors, one from patients PBMCs harvested 2 weeks before the latest vaccination, and one from the latest vaccination) were thawed at the same time in the morning of the experiment. The PBMCs from healthy donors were from the same donors throughout the series of immunological monitoring. Responses (IFN-γ production) to PHA, EBV-peptide, and the vaccinated peptides were considered to be mediated by resting T cells, memory T cells, and activated T cells, respectively.
Except for the following points, substantially the same approach was employed as Example 1.

With AYDFLYNYL [SART 2161-169], in the test on peptide-specific IgG [1], the “Anti-peptide IgG during the combination therapy, 6th” value is “−”; the “Anti-peptide IgG during the combination therapy, 12th” value is reported as “−”; the “Anti-peptide IgG during the combination therapy, 18th” value is on record as “−”; the “Anti-peptide IgG during the combination therapy, Pre” value is given as “−”. Further, the “Cellular response to peptide, Pre (mean specific IFN-γ production)” value (“Cellular response to peptide, Pre” below) in test [2] was found to be 0 pg/mL. Moreover, in test [3], the “Cellular response to peptide during the combination therapy, 6th” value was “Ar (p* ≦ 0.1 and 500 ≦ net**)”; the “Cellular response to peptide during the combination therapy, 12th” value is “B (p ≦ 0.05 and 25 ≦ net < 50) and AAC”; the “Cellular response to peptide during the combination therapy, 18th” value is “ArA and ArArAA”; the “Cellular response to peptide during the combination therapy, Pre” value was “A (p ≦ 0.05 and 50 ≦ net)”. The “Anti-peptide IgG, Pre” value in the test with peptide-specific IgG [4] is listed as “+”.

For the sequence AYIDFEMKI [SART 3315-323], in the test on peptide-specific IgG [1], the “Anti-peptide IgG during the combination therapy, 6th” value was “− and +”; the “Anti-peptide IgG during the combination therapy, 12th” value is “−”; the “Anti-peptide IgG during the combination therapy, 18th” value is reported as “−”; the “Anti-peptide IgG during the combination therapy, Pre” value is “− and +”. In test [2], the “Cellular response to peptide, 6th (mean specific IFN-γ production)” value (shortened to “Cellular response to peptide, 6th”) is 39.3 pg/ml and 12.8 pg/ml and 154** pg/ml and 26.5 pg/ml and 255 pg/ml; the “Cellular response to peptide, Pre” value is 47.8 pg/mL and 4 pg/mL and 0 pg/mL and 112.3 pg/mL and 44.8 pg/mL and 15 pg/mL. In addition, in test [3], the “Cellular response to peptide during the combination therapy, 6th” value is “A (p ≦ 0.05 and 50 ≦ net)”; the “Cellular response to peptide during the combination therapy, 12th” value was “Ar (p* ≦ 0.1 and 500 ≦ net**)”; the “Cellular response to peptide during the combination therapy, 18th” value is reported as “ArArArB”. For the same sequence, in the test with peptide-specific IgG [4], the “Anti-peptide IgG, 6th” value is “+ (2×) and − (3×)”; the “Anti-peptide IgG, Pre” value was “− (4×) and + (2×)”.

On to CYASGWGSI [PSA152], for which, in test [2], the “Cellular response to peptide, 6th” value is 34.8 pg/ml and 0 pg/ml (2×) and 18.8 pg/ml and 15.5 pg/ml; the “Cellular response to peptide, Pre” value is 34.5 pg/mL and 39.5 pg/mL and 250 pg/mL and 49.3 pg/mL and 168.8 pg/mL. In addition, in the test with peptide-specific IgG [4], the “Anti-peptide IgG, 6th” value was “− (4×) and +”; the “Anti-peptide IgG, Pre” value is “− (3×) and + (2×)”.

Take DYLRSVLEDF [lck488-497]: in the test on peptide-specific IgG [1], the “Anti-peptide IgG during the combination therapy, 6th” value is “− (3×) and +”; the “Anti-peptide IgG during the combination therapy, 12th” value is “− (2×) and +”; the “Anti-peptide IgG during the combination therapy, 18th” value is “+ (2×) and −”; the “Anti-peptide IgG during the combination therapy, Pre” value was “−”. Also, in test [2], the “Cellular response to peptide, 6th” value was 99 pg/mL and 26.8 pg/mL and 26.5 pg/mL and 19.8 pg/mL; the “Cellular response to peptide, Pre” value is 29.8 pg/mL and 36.5 pg/mL and 31.8 pg/mL and 30.5 pg/mL. In test [3], the “Cellular response to peptide during the combination therapy, 6th” value is on record as “ABB”; the “Cellular response to peptide during the combination therapy, Pre” value is “C (0.05 < p < 0.1 and 50 ≦ net) and B (p ≦ 0.05 and 25 ≦ net < 50) and ArAB”. Moreover, in the test with peptide-specific IgG [4], the “Anti-peptide IgG, 6th” value is “−”; the “Anti-peptide IgG, Pre” value was “+ (3×) and −”.

Turning to DYSARWNEI [SART 293-101], in the test with peptide-specific IgG [1], the “Anti-peptide IgG during the combination therapy, 6th” value is “−”; the “Anti-peptide IgG during the combination therapy, 12th” value is recorded as “−”; the “Anti-peptide IgG during the combination therapy, 18th” value was “−”; the “Anti-peptide IgG during the combination therapy, Pre” value is listed as “−”. In addition, in test [2], the “Cellular response to peptide, 6th” value is 376.8 pg/ml and 162.5 pg/ml and 228.5** pg/ml; the “Cellular response to peptide, Pre” value is 22.8 pg/mL and 125 pg/mL and 57.3 pg/mL. Further, in test [3], the “Cellular response to peptide during the combination therapy, Pre” value is “C (0.05 < p < 0.1 and 50 ≦ net)”. For the same sequence, in the test on peptide-specific IgG [4], the “Anti-peptide IgG, 6th” value was “+ and − (2×)”; the “Anti-peptide IgG, Pre” value was “+ (2×) and −”.

On to EYRGFTQDF [SART1 690], for which, in test [2], the “Cellular response to peptide, 6th” value was 0 pg/mL and 81.8 pg/mL and 35 pg/mL; the “Cellular response to peptide, Pre” value is 0 pg/mL and 250 pg/mL and 449 pg/mL. Besides, in the test with peptide-specific IgG [4], the “Anti-peptide IgG, 6th” value is “+ (2×) and −”; the “Anti-peptide IgG, Pre” value is “+ and − (2×)”.

In the case of HYRKWIKDTI [PSA248], in test [2], the “Cellular response to peptide, 6th” value is 100 pg/ml and 505.8 pg/ml and 303.5 pg/ml and 149.8 pg/ml and 0 pg/ml (4×) and 9.3 pg/ml and 21.3 pg/ml and 38.8 pg/ml and 243.5 pg/ml and 9.8 pg/ml; the “Cellular response to peptide, Pre” value was 19.5 pg/ml and 28.3 pg/ml and 12.8 pg/ml and 14.3 pg/ml and 6.5 pg/ml and 18.5 pg/ml and 0 pg/ml (2×) and 375 pg/ml and 17 pg/ml and 250 pg/ml and 18 pg/ml and 32.8 pg/ml and 23.8 pg/ml. Besides, in the test on peptide-specific IgG [4], the “Anti-peptide IgG, 6th” value is “+ (8×) and ++ (4×)”; the “Anti-peptide IgG, Pre” value is “+ (12×) and − (2×)”.
